In one series the test system is Leukemia L-1210 cells. Nature of the series: Antitumor activity on leukemia in mice caused by Leukemia L-1210 cells (Test I). The class given is in vivo. Also noted: key: *: shows that a toxicity or its sign of the compound tested in the animals tested such as death due to toxicity or weight loss was observed. The conditions noted are these: L-1210 mice. The procedure:
Antitumor activity on leukemia in CDF, mice caused by Leukemia L-1210 cells
In this test, Compound Nos. I and 2 of this invention were assessed in comparison with daunomycin and adriamycin on their tumor inhibitory activity against leukemia in mice. Thus, CDF, mice were intraperitoneally transplanted with cells of Leukemia L-1210 (I ^x 10^5 cells/mouse). From 24 hours after i.p. transplantation of L 1210 cells, each compound to be tested was administered intraperitoneally for 9 consecutive days at once per day. Observation was made for 60 days where survival days of each mouse tested were recorded and percentage increase in lifespan of the treated mice, in comparison with control test wherein mice were treated only, with the administration of physiological saline, was calculated as T/C % where T is the mean survival days of the treated animals and C is the mean survival days of the untreated control animals.The test results are shown in Table I.

For a further series, the system named is Leukemia P 388. The conditions noted are these: cited from earlier work.
The next series deals with Leukemia L-1210. Particulars: dosage of 25 mg/kg, single dose per day, intraperitoneally for 9 days, Leukemia L-1210 mice; cited from earlier work.
The nature of series [1]: Acid hydrolysis of the glycoside linkage, analysed by TLC (Test 2). The class given is physicochemical. The text has this:
A further advantage of the anthracycline derivatives of formula (I) according to this invention is in that the susceptibility of the glycoside linkage to be broken by acid hydrolysis is very low. This is, we believe, to be one of reasons why the compounds of this invention are of low toxicity. […] Of course, a high chemical stability of a compound in vitro is not always related to its stability against hydrolysis in vivo, but it may be assumed in view of high anticancer effects in vivo of the compounds of this invention that the glycoside linkage of those compounds is of high stability in vivo, too. In any case, it is true that such high chemical stability of the glycoside linkage of the compounds of this invnetion is advantageous in that it makes the handling of those compounds easy in chemical applications. Test 2 given below illustrates the high stability of the glycoside linkage of the compounds of this invention.
Daunomycin (I mg) was dissolved in a mixture (0.1 ml) of 0.2 N^*HCI-80% CH3CN-H,O (^* the 0.2 N concentration of HCI being of the said mixture) and the solution was heated in an oil bath at 61 -62°C for 30 minutes to cause the hydrolysis. […] The reaction solution was allowed to stand at room temperature to deposit daunomycinone as red crystals.
FTDM (0.7 mg) was suspended in a mixture (0.1 ml) of 0.2 N HCI-80% CH,CN-H20 and the suspension was stirred in an oil bath at 61 -62°C for 30 minutes.
A futher amount (0.3 ml) of the mixture of 0.2N HCI-80% CH3CN-H20 was added to the reaction mixture, when the mixture substantially became a solution with a little amount of insolubles. Then, it was heated to 61-62°C under stirring to give a homogeneous solution.

Where [2] appears, read: Dose 5 mg/kg/day i.p. for 9 days.
[3] abbreviates: 0.2 N HCl-80% CH3CN-H2O, 61 -62°C (about 60°C), 30 minutes.

The text below walks through data of patent EP0230013A1, “New anthracycline derivatives, uses thereof as antitumor agent and production thereof” (ZAIDAN HOJIN BISEIBUTSU KAGAKU KENKYU KAI, priority 1985, dated 1987).

Read-outs that look alike come from different tables or passages of the source.

For `COc1cccc2c1C(=O)c1c(O)c3c(c(O)c1C2=O)C[C@@](O)(C(=O)CO)C[C@@H]3O[C@H]1C[C@H](N)[C@H](O)[C@H](C)O1` [Adriamycin, adriamycin], the “toxicity or its sign (death due to toxicity or weight loss)” value in the series on Leukemia L-1210 cells (setting [2]) is on record as “*”.

Take `COc1cccc2c1C(=O)c1c(O)c3c(c(O)c1C2=O)C[C@@](O)(C(C)=O)C[C@@H]3O[C@@H]1O[C@@H](C)[C@@H](OC(C)=O)[C@@H](OC(C)=O)[C@H]1I` [Compound NSC 327,472, 7-O-(3,4-di-O-acetyl-2,6-dideoxy-2-iodo-a-L-talohexopyranosyl)daunomycinone]: the “increase (%) of survival days of the Leukemia P 388-inoculated mice treated” value in the series on Leukemia P 388 (dosage of 12.5 mg/kg to 25 mg/kg) was 172%; with Leukemia P 388 (dosage of 150 mg/kg), 162%.

Turning to `COc1cccc2c1C(=O)c1c(O)c3c(c(O)c1C2=O)C[C@@](O)(C(C)=O)C[C@@H]3O[C@@H]1O[C@@H](C)[C@H](OC(C)=O)[C@@H](OC(C)=O)[C@H]1I` [Compound NSC 331,962, 7-O-(3,4-di-O-acetyl-2,6-dideoxy-2-iodo-a-L-mannohexopyranosyl) daunomycinone], the “increase (in %) of survival days of the mice treated, compared to the mice untreated (T/C, %)” value with Leukemia P 388 (dosage of 50 mg/kg, Leukemia P 388 mice) is 247%. Besides, in the series with Leukemia L-1210, the “increase (in %) of survival days of the mice treated, as compared to the mice untreated (T/C, %)” value is on record as 196%.

Take `COc1cccc2c1C(=O)c1c(O)c3c(c(O)c1C2=O)C[C@@](O)(C(C)=O)C[C@@H]3O[C@@H]1O[C@@H](C)[C@@H](O)[C@@H](O)[C@H]1F` [Compound No. 1, 7-O-(2,6-dideoxy-2-fluoro-α-L-talopyranosyl)daunomycinone]: the “acid hydrolysis (TLC)” value in series [1] (setting [3]) is recorded as “presence of the spot of FTDM only”; in series [1] (0.2N HCl-80% CH3CN-H2O, 61-62°C, further 3 hours), “the spot of FTDM only”; in series [1] (1 N HCl in acetonitrile-water (4:1), 61-62°C (about 60°C), 8 hours, listed as Compound No. I) it was “remains substantially as it is,without being decomposed”; in series [1] (1 N HCl in acetonitrile-water (4:1), 61-62°C (about 60°C), 8 hours, listed as FTDM), “a spot of a trace amount of daunomycinone appeared, but most of FTDM was also present as it was”.

`COc1cccc2c1C(=O)c1c(O)c3c(c(O)c1C2=O)C[C@@](O)(C(C)=O)C[C@@H]3O[C@H]1C[C@H](N)[C@H](O)[C@H](C)O1` [Daunomycin, daunomycin]: the “toxicity or its sign (death due to toxicity or weight loss)” value in the series on Leukemia L-1210 cells (Dose 2.5 mg/kg/day i.p. for 9 days) and in the series with Leukemia L-1210 cells (setting [2]) was “*” throughout. In addition, the “acid hydrolysis (TLC)” value in series [1] (setting [3]) was “disappearance of the spot of daunomycin”; in series [1] (0.2 N HCl-80% CH3CN-H2O, 61 -62°C (about 60°C), 30 minutes, listed as daunomycin), “completely decomposed”.
